Laboratory results: ChEMBL document CHEMBL6121006, “Marine natural product-inspired discovery of novel BRD4 inhibitors with anti-inflammatory activity” (Eur J Med Chem, 2025)
Calls of active or inactive are those of the source. The calls are words filed in the database; no cut-off is given here.

Legend:
[1] = test system: Mus musculus; assay: Antiinflammatory activity against LPS-induced C57BL/6 mouse acute inflammation model assessed as rescue of increased inflammatory cell infiltration in kidney at 50 to 100 mg/kg, po pre-administered for 2 hrs followed by LPS stimulation for 6 hrs; assay type: functional, organism-based; conditions: dose 50-100 mg/kg, time 8.0 hrs
[2] = biological target: Bromodomain-containing protein 4 (Homo sapiens, UniProt O60885); assay: Induction of thermal stabilization of human recombinant BRD4 […] (42 to 167 residues) extracted from Escherichia coli BL21 (DE3) incubated for 30 mins by thermal shift assay
[3] = biological target: T1, Bromodomain-containing protein 9 (Homo sapiens) (UniProt Q9H8M2); assay: Inhibition of BRD9 (unknown origin) at 1 uM incubated for 2 hrs by TR-FRET assay relative to control
T1 sequence (whole entry): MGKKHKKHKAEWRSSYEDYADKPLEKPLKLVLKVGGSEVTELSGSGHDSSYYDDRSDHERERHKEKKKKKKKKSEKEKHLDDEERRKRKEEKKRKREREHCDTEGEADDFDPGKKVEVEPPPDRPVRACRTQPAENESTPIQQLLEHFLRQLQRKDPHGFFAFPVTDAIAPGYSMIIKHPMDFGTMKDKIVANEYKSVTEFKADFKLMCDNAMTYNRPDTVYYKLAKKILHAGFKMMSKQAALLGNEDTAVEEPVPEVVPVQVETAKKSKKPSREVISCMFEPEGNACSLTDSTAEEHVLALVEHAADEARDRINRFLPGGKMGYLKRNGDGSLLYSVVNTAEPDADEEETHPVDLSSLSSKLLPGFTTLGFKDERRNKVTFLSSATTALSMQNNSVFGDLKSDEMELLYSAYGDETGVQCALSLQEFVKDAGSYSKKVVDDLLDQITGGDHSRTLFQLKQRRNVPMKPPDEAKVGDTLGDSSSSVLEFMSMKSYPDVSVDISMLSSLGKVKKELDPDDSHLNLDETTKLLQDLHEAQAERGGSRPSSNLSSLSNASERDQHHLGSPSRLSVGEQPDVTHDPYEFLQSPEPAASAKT

[4] = test system: Mus musculus; assay: Antiinflammatory activity against LPS-induced C57BL/6 mouse acute inflammation model assessed as decrease in infiltration of renal interstitial inflammatory cells at 100 mg/kg, po pre-administered for 2 hrs followed by LPS stimulation for 6 hrs; assay type: functional, organism-based; conditions: time 8.0 hrs
[5] = test system: Mus musculus; assay: Antiinflammatory activity against LPS-induced C57BL/6 mouse acute inflammation model assessed as improvement of hepatic necrosis in liver at 50 to 100 mg/kg, po pre-administered for 2 hrs followed by LPS stimulation for 6 hrs; assay type: functional, organism-based; conditions: dose 50-100 mg/kg, time 8.0 hrs
[6] = Toxicity in C57BL/6 mouse effect on liver at 100 mg/kg, po measured after 24 hrs; assay type: organism-based; conditions: in vivo
[7] = test system: Mus musculus; assay: Antiinflammatory activity against LPS-induced C57BL/6 mouse acute inflammation model assessed as rescue of damaged renal tubule cells in kidney at 50 to 100 mg/kg, po pre-administered for 2 hrs followed by LPS stimulation for 6 hrs; assay type: functional, organism-based; conditions: dose 50-100 mg/kg, time 8.0 hrs
[8] = biological target: Bromodomain testis-specific protein (Homo sapiens) (UniProt Q58F21); assay: Inhibition of BRDT BD1 (unknown origin) at 1 uM incubated for 2 hrs by TR-FRET assay relative to control

**Q.** What does the source list for `COc1ccc(/C=C/c2nc3cc(OC)cc(OC)c3c(=O)[nH]2)cc1`?
**A.** Activity [1]: Active; Activity [2]: Active; inhibition [3]: 12%; Activity [4]: Active; Activity [5]: Active; Activity [6]: Non-toxic; Activity [7]: Active; inhibition [8]: 6%
